Experiments:
[1] = system: mouse TTR gene; assay: In vivo editing in mouse liver, LNP with Cas9 mRNA and sgRNA G502, NGS; settings: G502, sgRNA:Cas9 mRNA 1:2 w/w, Example 119
Experimental: CD-1 female mice, ranging from 6-10 weeks of age were used in each study. Animals were weighed and grouped according to body weight for preparing dosing solutions based on group average weight. LNPs were dosed via the lateral tail vein in a volume of 0.2 mL per animal (approximately 10 mL per kilogram body weight). The animals were periodically observed for adverse effects for at least 24 hours post dose.
For studies measuring in vivo editing in liver, CD-1 female mice were dosed at 0.1 mpk unless otherwise noted. Animals were euthanized at 6 or 7 days by exsanguinationvia cardiac puncture under isoflourane anesthesia. Liver tissue was collected from each animal for DNA extraction and analysis. Blood was collected into serum separator tubes or into tubes containing buffered sodium citrate for plasma as described herein. Cohorts of mice were measured for editing by Next-Generation Sequencing (NGS).
(§1) In brief, to quantitatively determine the efficiency of editing at the target location in the genome, genomic DNA was isolated and deep sequencing was utilized to identify the presence of insertions and deletions introduced by gene editing.
PCR primers were designed around the target site (e.g., B2M), and the genomic area of interest was amplified. […] The reads were aligned to the relevant reference genome (e.g., GRCm38) after eliminating those having low quality scores. The resulting files containing the reads were mapped to the reference genome (BAM files), where reads that overlapped the target region of interest were selected and the number of wild type reads versus the number of reads which contain an insertion, substitution, or deletion was calculated.
(§2) The editing percentage (e.g., the “editing efficiency” or “percent editing”) is defined as the total number of sequence reads with insertions or deletions over the total number of sequence reads, including wild type.
We assessed in vivo editing efficiency for materials delivered with formulations with variable tail lengths through in vivo editing experiments. […]

[2] = system: rat TTR; assay: In vivo editing in rat liver, LNP with Cas9 mRNA and sgRNA G534, NGS; settings: Table 11, Sprague Dawley female rats i.v., liver 6-7 days post dose
Experimental: as §1
PCR primers were designed around the target site (e.g., B2M), and the genomic area of interest was amplified. Additional PCR was performed according to the manufacturer's protocols (Illumina) to add the necessary chemistry for sequencing. The amplicons were sequenced on an Illumina MiSeq instrument. The reads were aligned to the relevant reference genome (e.g., GRCm38) after eliminating those having low quality scores. The resulting files containing the reads were mapped to the reference genome (BAM files), where reads that overlapped the target region of interest were selected and the number of wild type reads versus the number of reads which contain an insertion, substitution, or deletion was calculated.
as §2
To assess lipid efficacy, dose response experiments were performed in vivo. Cas9 mRNA of Example 115 was formulated as LNPs with a gRNA targeting TTR (G00534; SEQ ID NO: 5). These LNPs were formulated, prepared and analyzed as described in Example 115 using a 1:2 w/w ratio of a sgRNA and Cas9 mRNA. Composition analysis for these LNPs are described in Table 10.
For efficacy, Sprague Dawley female rats were dosed i.v. at 0.1 mpk or 0.03 mpk. 6-7 days post dose, rats were euthanized by CO2 asphyxiation. Blood was collected into serum separator tubes. Liver biopsy processed for gDNA and assessed for editing by NGS methods described in Example 115. Results are shown in Table 11 and FIGS. 12A and 12B. For tolerability, Sprague Dawley female rats were dosed at 6 mpk and 24 hours post dose the animals were euthanized by CO2 asphyxiation. Blood was collected into serum separator tubes and sent to an external CRO for quantitation of liver enzymes via a liver enzyme panel.

| SMILES | efficacy for in vivo editing (in words) [1] | Editing % Editing ([2]; dose 0.03 mpk) [%] | Editing % Editing ([2]; dose 0.1 mpk) [%] |
| --- | --- | --- | --- |
| CCCCC/C=C\C/C=C\CCCCCCCC(=O)OCC(COC(=O)CCCCCCC/C=C\C/C=C\CCCCC)OC(=O)CCC(CCCCCC)OC(=O)NCCN1CCCC1 (racemic) [Compound 50, 2-((4-(((2-(pyrrolidin-1-yl)ethyl)carbamoyl)oxy)decanoyl)oxy)propane-1,3-diyl (9Z,9′Z,12Z,12′Z)-bis(octadeca-9,12-dienoate)] | efficacious | 26.9 | 62.6 |
| CCCCC/C=C\C/C=C\CCCCCCCC(=O)OCC(COC(=O)CCCCCCC/C=C\C/C=C\CCCCC)OC(=O)CCC(CCCCCCCC)OC(=O)NCCN(C)CC (centres unmarked) [Compound 34, 2-((4-(((2-(ethyl(methyl)amino)ethyl)carbamoyl)oxy)dodecanoyl)oxy)propane-1,3-diyl (9Z,9′Z,12Z,12′Z)-bis(octadeca-9,12-dienoate)] | – | 21.22 | 53.9 |
| CCCCC/C=C\C/C=C\CCCCCCCC(=O)OCC(COC(=O)CCCCCCC/C=C\C/C=C\CCCCC)OC(=O)CCC(CCCCCC)OC(=O)OCCCN1CCCC1 (centres unmarked) [Compound 45, 2-((4-(((3-(pyrrolidin-1-yl)propoxy)carbonyl)oxy)decanoyl)oxy)propane-1,3-diyl (9Z,9′Z,12Z,12′Z)-bis(octadeca-9,12-dienoate)] | – | 10.76 | 48.16 |
| CCCCC/C=C\C/C=C\CCCCCCCC(=O)OCC(COC(=O)CCC(OCCCCCCCC)OCCCCCCCC)COC(=O)OCCCN(CC)CC (centres unmarked) [Compound 49, 3-((4,4-bis(octyloxy)butanoyl)oxy)-2-((((3-(diethylamino)propoxy)carbonyl)oxy)methyl)propyl (9Z,12Z)-octadeca-9,12-dienoate, reference compound] | – | 4.76 | 25.62 |
| CCCCC/C=C\C/C=C\CCCCCCCC(=O)OCC(COC(=O)CCCCCCC/C=C\C/C=C\CCCCC)OC(=O)CCC(CCCCCCCC)OC(=O)NCCN1CCCC1 (centres unmarked) [Compound 51, 2-((4-(((2-(pyrrolidin-1-yl)ethyl)carbamoyl)oxy)dodecanoyl)oxy)propane-1,3-diyl (9Z,9′Z,12Z,12′Z)-bis(octadeca-9,12-dienoate)] | efficacious | – | – |
| CCCCC/C=C\C/C=C\CCCCCCCC(=O)OCC(COC(=O)CCCCCCC/C=C\C/C=C\CCCCC)OC(=O)CCC(CCCCC)OC(=O)NCCN1CCCC1 (centres unmarked) [Compound 72, 2-((4-(((2-(pyrrolidin-1l-yl)ethyl)carbamoyl)oxy)nonanoyl)oxy)propane-1,3-diyl (9Z,9′Z,12Z,12′Z)-bis(octadeca-9,12-dienoate)] | efficacious | – | – |

Reference: US12077483B2, “Modified amine lipids” (Intellia Therapeutics, Inc., priority 2018, dated 2024)
